Results: publication PMC6030209, “Structure-Activity Investigations and Optimisations of Non-metabolite Agonists for the Succinate Receptor 1” (Scientific Reports, 2018)

How the values were obtained:
SUCNR1 [1] = assay: Active/inactive grouping by EC50 threshold (ALiBERO training set, Table S1); format: cell-based; details: active (1) / inactive (0), EC50 threshold of 10 µM
From the text: In brief, starting from the homology model supported by mutagenesis data[4], ALiBERO introduced receptor flexibility via Normal Mode Analysis and Monte Carlo sampling, to generate a small subset of receptor models (pockets). […] For a list of all compounds used in the optimisation protocol, see Table S1. Receptor structures were then chosen based on their ability to discriminate actives from inactives in a retrospective virtual screening using the docking protocol and scoring function in ICM (Molsoft L.L.C., San Diego, CA, USA)[20], as measured by the normalised square root area under the curve (NSQ_AUC). […] The ALiBERO-optimised receptor ensemble was subsequently validated in a virtual ligand screening using an external test set with a higher active:decoy ratio (~1:50).
ALiBERO is an iterative sampling-selection protocol for receptor optimisation that relies on the use of ligand information for selecting the best-performing receptor conformations. Homology models of the mouse SUCNR1 receptor were constructed according to Trauelsen et al.[4] and loaded into ICM (Molsoft L.L.C., San Diego, CA, USA). The structure was converted into an ICM object, thereby assigning protein atom types, optimising hydrogens and His, Pro, Asn, […] and Cys side-chain conformations. […] For a list of all compounds used in the optimisation protocol, see Table S1. ALiBERO was performed using the prepared receptor structure and ligand training set as input. Binding site residues were manually selected based on proximity to the position of MRS2500 in the superimposed structure of the P2Y1 receptor (PDB 4XNW). 100 elastic network normal mode analysis derived conformers were built in order to recreate backbone and side-chain flexibility (T = 300 K). Next, a flexible-ligand static-receptor small-scale virtual screening was performed on each of the receptor conformers, from which several pockets were selected for the following generation. The ligand and decoy molecules were docked into mSUCNR1, represented as pre-calculated potential grids and then sorted according to their ICM VLS scores. The maximum number of complementary pockets for each generation was set to 5 with a maximum of 10 generations. Receptor models were selected based on their combined screening performance, as determined by the normalised square root area under the curve, NSQ_AUC. After each round of virtual screening, an all-atom Monte Carlo side-chain refinement was performed to account for induced-by-ligand changes. NSQ_AUC values were calculated according to Katritch et al.[16].

physchem = format: physicochemical; details: pH 7.4, aqueous buffer, kinetic from dmso stock, 10 mM PBS7.4, 25 °C
Method: Duplicates of a 200 μM solution of the dicarboxylic acids were prepared from 0.01 M PBS7.4 and a 10 mM stock solution in DMSO. The samples were incubated in an Eppendorf® Thermomixer (25 °C, 800 rpm) for 24 h. Afterwards, the samples were centrifuged for 5 min at 11,000 rpm and the supernatant was filtered (0.45 μm PTFE membrane) before analysis by HPLC. The solubility was calculated based on a concentration-absorption curve.

mSUCNR1 = target: T1, mSUCNR1 (Mus musculus, UniProt Q99MT6); assay: IP3 turnover assay in mSUCNR1 transfected HEK-293 cells; format: cell-based
T1 construct: FLAG (own knowledge: pCMV-Tag 2B is an N-terminal FLAG vector); host or cells: HEK-293, transient transfection with Lipofectamine-2000
T1 sequence (Q99MT6 1-317): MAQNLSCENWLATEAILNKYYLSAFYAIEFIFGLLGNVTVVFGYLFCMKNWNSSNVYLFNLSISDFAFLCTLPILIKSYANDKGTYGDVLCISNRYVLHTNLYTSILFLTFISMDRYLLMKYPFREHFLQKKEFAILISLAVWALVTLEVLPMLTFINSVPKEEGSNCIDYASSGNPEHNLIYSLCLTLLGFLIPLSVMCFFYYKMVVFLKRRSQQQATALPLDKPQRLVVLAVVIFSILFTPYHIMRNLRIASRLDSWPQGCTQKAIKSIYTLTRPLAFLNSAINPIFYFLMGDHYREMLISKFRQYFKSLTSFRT
Method: Receptor constructs for mSUCNR1 and hSUCNR1 were bought from Origene and cloned into the eukaryotic expression vector pCMV-Tag(2B) (Stratagene).
Transient transfection of the HEK-293 cells was done with Lipofectamine-2000 according to manufacturer’s protocol. Cells were supplemented with fresh medium after 5 h.
96-well plates were coated with poly-D-lysine and HEK-293 cells were plated (35.000 cells/well). Cells were transfected for 5 h the following day and subsequently incubated O/N with 0.5 μCi/mL myo[3H]inositol (Perkin Elmer) in 100 μL growth medium. On day 3 cells were washed with 200 µL HBSS/well (Gibco, Life Technologies) followed by a pre-incubation (30 min, 37 °C) with 100 µL HBSS supplemented with 10 mM LiCl. Cells were stimulated with ligand (120 min, 37 °C) and lysed with 50 µL 10 mM formic acid (30 min on ice). In a white 96 well plate 20 µL cell extracts and 80 µL 1:8 diluted YSi scintillation beads (Perkin Elmer) were mixed. The plate was spun down, and a Packard Top Count NXT counter recorded light emission (scintillation) after an 8 h delay.

[2] = format: physicochemical; details: after 70 hours in 10 mM PBS7.4, 37 °C
Method: Triplicates of a 50 μM solution of the test compounds were prepared from 0.01 M PBS7.4 and a 10 mM stock solution in DMSO. The samples were incubated in an Eppendorf® Thermomixer (37 °C, 650 rpm). The samples were briefly vortexed and 50 μL aliquots were withdrawn at the time points 0 h, 24 h, 48 h etc. and analysed immediately on UPLC. The chemical stability in PBS7.4 was determined at every time point in percentage relative to the 0 h time point.

[3] = format: in vitro ADME, mouse; details: 1 hour, 1 μM, 0.5 mg/mL microsomes
Method: Microsomal stability was studied in mouse liver microsomes (0.5 mg/mL) at a final test compound concentration of 1 μM and performed in triplicates in accordance to the published protocol. In short: Prewarmed (37 °C) 0.1 M PBS7.4, 10 mM NADPH in PBS7.4 and test compound (1 mM in DMSO) were added to an Eppendorf® Tube. The samples were incubated for 5 min at 37 °C before addition of newly thawned microsomes. The samples were mixed by gentle vortexing and incubated for 1 h at 37 °C, 300 rpm in an Eppendorf® Thermomixer. Samples were quenched by addition of ice-cold MeOH/MeCN (1:1) and centrifuged for 5 min at 10,000 g. The supernatant was transferred to HPLC vials and stored in the freezer until analysis by HPLC/UPLC. The metabolic stability was calculated based on a 0 min sample. All compounds were analysed in triplicates.

[4] = logD7.4 determination (1-octanol/PBS7.4 shake flask); format: physicochemical; details: 1-octanol/PBS7.4, pH 7.4
Method: A glass vial with screw cap (8 mL) was charged with test compound (40 μL, 10 mM in DMSO), PBS7.4 (0.01 M, 1980 μL), and 1-octanol (1980 μL). The vial was capped and sealed with parafilm and shaken at 700 rpm using an IKA® KS 125 basic shaker for 24 h at room temperature. The parafilm was removed and the sample was allowed to equilibrate for 1 h before analysis. 100 μL of the octanol phase was withdrawn and diluted 1:10 with MeOH(+0.1% formic acid)/MilliQ water (4:1, v/v) and analysed by HPLC/UPLC. The interface was removed and the PBS7.4 phase analysed directly by HPLC/UPLC. All analysis was performed in duplicates and logD values were calculated from the peak areas (mAU*min) and adjusted for difference in injection volume and concentration-absorption effects from the solvents, using two calibration points per compound per solvent, and dilution of the octanol phase. All compounds were analysed in triplicates.

[5] = format: in vitro ADME; details: 2 hours, 37 °C
Method: FaSSIF, FeSSGF and FaSSGF were prepared in accordance to the manufacturers procedure, Biorelevant.com. Triplicates of a 50 μM solution of the test compounds were prepared from a 10 mM stock solution in DMSO diluted with FaSSGF/FaSSIF/FeSSIF. The samples were incubated in an Eppendorf® Thermomixer (37 °C, 650 rpm). Samples were withdrawn at 0 min and 120 min, centrifuged (10 min at 10,000 rpm) and the supernatant analysed by HPLC/UPLC. The stability was calculated based on peak area of a 0 point sample.

SUCNR1 [6] = details: full agonist on SUCNR1; cited from earlier work

Molecule | Active (SUCNR1 [1]) | solubility kinetic at 24 h (physchem) [µM] | EC50 (mSUCNR1) [nM] | mSUCNR1 efficacy, % (mSUCNR1; efficacy relative to succinate (100%), IP3 turnover, HEK cells (N = 3)) [%] | chemical stability [2] [%] | stability in mouse liver microsomes [3] | logD at 24 h [4] | stability in FaSSGF ([5]; simulated gastrointestinal fluid FaSSGF) | stability in FaSSIF ([5]; simulated gastrointestinal fluid FaSSIF) | EC50 (SUCNR1 [6]) [nM]
O=C(O)C[C@H](NC(=O)c1cccc(-c2ccc(OC(F)(F)F)cc2)n1)C(=O)O [Compound 31, (6-(4-(Trifluoromethoxy)phenyl)picolinoyl)-L-aspartic acid] | 1 (active (1)) | > 200 | 178 | 69.9 ± 2.2 | > 98 | stable | -2.13 | stable | stable | 
cis-epoxysuccinic acid |  |  |  |  |  |  |  |  |  | 2700
